# Laboratory results from PubChem BioAssay AID1188 (EPA DSSTox, 2008).
# Calls of active or inactive are those of the source.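 The calls were made as follows: active = a concentration killing half the fathead minnows in the acute test was determined; inconclusive = some fish died but not half at top dose; inactive = no fish died even at top dose.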
# System: Fathead minnow (Pimephales promelas) acute toxicity, lethality
# Assay: DSSTox (EPAFHM) EPA Fathead Minnow Acute Toxicity
# Text: The EPA Fathead Minnow Acute Toxicity database was generated by the U.S. EPA Mid-Continental Ecology Division (MED) for the purpose of developing an expert system to predict acute toxicity from chemical structure based on mode of action considerations. […] A second valuable aspect of this database, from a QSAR modeling perspective, is the inclusion of general mode-of-action (MOA) classifications of acute toxicity response for individual chemicals derived from study results. MOA assignments are biologically based classifications, allowing definition of chemical similarity based upon biological activity instead of organic chemistry functional class as most commonly employed in QSAR study. MOA classifications should strengthen the scientific basis for construction of individual QSARs. However, it is cautioned that the broad MOA categorizations should not be construed to represent a single molecular mechanism; for example, CNS seizure agents and respiratory inhibitors are known to act through a variety of receptors. The EPA Fathead Minnow database and results have been used by EPA MED to build components of the ASTER prediction system, which incorporates MOA-based QSARs for the prediction of aquatic toxicity of environmental and industrial chemicals. Briefly, MOA classifications for individual chemicals, derived from experiments and provided in the EPA Fathead Minnow database, were used to derive substructural rules for assigning a new chemical to an MOA category based solely on chemical structure. Once a new chemical is assigned to an MOA category on this basis, the logP-based QSAR for that MOA category is applied.
# The DSSTox EPAFHM database (available from the DSSTox Source URL) includes information pertaining to organic chemical class assignments (ChemClass_FHM), acute toxicity in fathead minnow (LC50_mg), dose-response assessments (LC50_Ratio, ExcessToxicityIndex), behavioral assessments (FishBehaviorTest), joint toxicity MOA evaluations of mixtures (MOA_MixtureTest), and additional MOA evaluation of fish acute toxicity syndrome (FishAcuteToxSyndrome) in rainbow trout. All of these indicators, to the extent available, were considered in the determination of MOA and, additionally, were used to determine a level of confidence in the MOA assignment for each chemical (MOA_Confidence). […] Activity Score is mapping of LOG10 (1/LC50_mmol) activity values spanning activity range [MIN, MAX] onto Integer 1-100 Activity range, where 100 is highest potency and 1 is lowest. If Activity Outcome is "active": Activity Score = 100 * INTEGER[(log10(1/ LC50_mmol) - MIN)/([…])].
SMILES,Potency [µM],outcome
CCc1ccccn1,3860,
Nc1ccc([N+](=O)[O-])cc1[N+](=O)[O-],80.8,
C=CC(C)(O)CC/C=C(\C)CCC=C(C)C (centres undefined),6.43,
CC(=O)C(C)(C)C,869,
O=[N+]([O-])c1c(Cl)cc(Cl)c([N+](=O)[O-])c1Cl,0.818,
C#CCC(C)O (centres undefined),417,
CN(C)c1ccc(P(=O)(c2ccc(N(C)C)cc2)c2ccc(N(C)C)cc2)cc1,,inactive; moa not determined either due to lack of toxicity at saturation or late test res
Oc1c(Cl)c(Cl)c(Cl)c(Cl)c1Cl,0.912,
O=Cc1cc(Br)cc(Br)c1O,3.04,
Cc1ccccc1F,176,
NC(=O)c1ccc(Cl)cc1Cl,503,
O[C@@H]1C[C@H]2CC[C@@H]1C2,2030,
c1ccc(-c2nc(-c3ccccc3)c(-c3ccccc3)[nH]2)cc1,,inactive; moa not determined either due to lack of toxicity at saturation or late test res
O=Cc1ccc(Cl)cc1Cl,10.3,
CCN(CC)c1ccc(C=O)c(O)c1,27.7,
CO,,active; baseline narcosis
O=Cc1ccccc1F,10.9,
CCOCCOCCO,198000,
Oc1c(I)cc(I)cc1I,2.56,
O=[N+]([O-])c1ccc(F)cc1,201,
COc1cc(O)c(C=O)c(OC)c1,14.7,
Nc1ccc([N+](=O)[O-])cc1,905,
CC(=O)CC(C)C,5210,
CCCCCCCCC(C)=O,30.9,
C=C(C)C(=O)OC(C)C,296,

SMILES,Potency [µM],outcome
CC(C)(O)C(F)(F)C(F)F,3640,
N#Cc1cc(I)c(O)c(I)c1,18.3,
CCOC(=O)CC(=O)OCC,91.8,
CCC(=O)O,49900,
O=S(=O)([O-])c1ccc[n+](Cc2ccccc2)c1,9670,
CC(C)CO,19300,
C1CCOC1,30000,
Cc1cccnc1,1550,
Oc1ccc(Cl)cc1O,10.9,
C=C[C@@](C)(O)CC[C@H]1C(=C)CC[C@H]2C(C)(C)CCC[C@]12C,0.413,
c1ccc(CC2=NCCN2)cc1,1800,
CCOP(=S)(OCC)SCSc1ccc(Cl)cc1,0.7,
COc1cccc(O)c1,596,
CC[N+](CC)(CC)Cc1ccccc1,707,
C1N2CN3CN1CN(C2)C3,355000,
CNC(=O)O/N=C/C(C)(C)SC,4.52,
Oc1c(Br)cc(Br)cc1Br,19.8,
Oc1c(O)c(Cl)c(Cl)c(Cl)c1Cl,5.12,
C=CC(=O)OCCCCCCCCCCCC,,inactive; moa not determined either due to lack of toxicity at saturation or late test res
CCOP(=O)(Cc1ccccc1)OCC,1470,
C=C[C@@]1(C)CC[C@H]2C(=CC[C@@H]3[C@]2(C)CCC[C@@]3(C)C(=O)O)C1,2.88,
CCCSCCC,184,
ClC(Cl)=C(Cl)Cl,99.5,
Cc1ccc(C)c(C)c1,64.2,
O=Cc1ccc([N+](=O)[O-])cc1,66.8,

SMILES,Potency [µM],outcome
CCOP(=S)(OCC)Oc1nc(Cl)c(Cl)cc1Cl,0.907,
CCCCCC,29,
CC/C=C\CCO,3800,
COc1ccc(C=O)c(OC)c1,121,
CCC(C)N (centres undefined),3760,
CCOC(CN(C)CC(OCC)OCC)OCC,2410,
COC(C)(C)C,7620,
NC(=O)c1ccc([N+](=O)[O-])cc1,801,
O=Cc1ccc(Cl)cc1,15.6,
Oc1ccccc1O,83.7,
COP(=S)(OC)SCn1nnc2ccccc2c1=O,0.202,
C=CCC#N,2710,
COC(=O)c1ccc(C(=O)OC)c([N+](=O)[O-])c1,27.3,
CCc1cccc(CC)c1N(COC)C(=O)CCl,18.5,
CC(=O)C(C)C,10000,
CCCCCC(=O)OCC,61.7,
COC(=O)c1ccc(Cl)cc1,64,
COC(=O)c1ccc(C#N)cc1,290,
ClCCl,3890,
Cc1cc(O)ccc1Cl,38.4,
CCc1ccc(C)nc1,669,
ClCC(Cl)Cl,612,
Oc1cc(Cl)c(Cl)cc1O,4.97,
CC(C)C1=CC2=CC[C@@H]3[C@](C)(CCC[C@@]3(C)C(=O)O)[C@H]2CC1,7.87,
